Counter-ions that a name gives are not always drawn.
Experiment: Particle size data of fesoterodine fumarate
Assay type: physicochemical
Method: (Particle size data of Fesoterodine fumarate: D10-47.3μ; D50-156μ; D90-293μ) • Procedure: Mixture of fesoterodine fumarate, microcrystalline cellulose, corn starch, lactose monohydrate, hypromellose, and povidone K 30 was lubricated with magnesium stearate and talc. The lubricated blend was then compressed into tablets. The tablets were finally coated with Opadry dispersion in purified water.
The formulation was prepared with the same excipients in the same quantity as used in Example 1. Only difference is in the particle size of fesoterodine fumarate used in that formulation. In this comparative example, particle size of fesoterodine fumarate is used such that D10-2.67μ; D50-34.48μ; D90-125.3μ.

[1] = fesoterodine fumarate used in Comparative Example 1
[2] = fesoterodine fumarate used in Example 1

Structure (SMILES): CC(C)C(=O)Oc1ccc(CO)cc1[C@H](CCN(C(C)C)C(C)C)c1ccccc1 [Fesoterodine fumarate, 2-[(1R)-3-(diisopropylamino)-1-phenylpropyl]-4-(hydroxymethyl)phenyl isobutyrate]
- Particle size D10 [1]: 2.67 μ
- Particle size D50 [1]: 34.48 μ
- Particle size D90 [1]: 125.3 μ
- Particle size D10 [2]: 47.3 μ
- Particle size D50 [2]: 156 μ
- Particle size D90 [2]: 293 μ

From patent US20140199401A1, “EXTENDED RELEASE PHARMACEUTICAL COMPOSITIONS OF FESOTERODINE” (CADILA HEALTHCARE LIMITED, priority 2011, published 2014)
